Measurements: patent publication US20230181601A1, “TREATMENT OF NON-ALCOHOLIC STEATOHEPATITIS (NASH)” (DURECT CORPORATION, priority 2020, published 2023)

Key:
[1] = tested on: patients with Non-Alcoholic Steatohepatitis (NASH); assay: Phase 1b study in NASH patients: safety; assay type: in vivo, human; conditions: all three doses (50 mg, 150 mg, 600 mg daily), 4 weeks oral
From the text: A total of 63 patients completed the study with 21 patients per dose group (completion of MRI-PDFF measurement). […] Subjects provided written informed consent to participate in the study • 2. Males or females subjects 18 years or older, at the time of signing informed consent • 3. BMI 20-45 kg/m^2 • 4. […] Value of Fibroscan® ≥7 kPa • OR • b. MRE≥2.75 kPa • *Clinical diagnosis of NASH was defined in this clinical trial as the existence of one or more of the following risk factors for NASH, namely: • a. Type 2 diabetes or elevated fasting blood sugar • b. Abdominal obesity • c. Elevated lipid levels, especially elevated levels of serum triglycerides • d. Hypertension, or • e. Low levels of HDL cholesterol • 5. For serum transaminases, ALT concentration for all patients at the time of screening was >1 and <5 times upper limit of normal (ULN) of the central lab in the absence of another cause of liver disease. If a patient had lab records in the past 6 months, ALT concentrations were <20 U/L female and <30 U/L male. AST concentration for all patients at the time of screening was <5x ULN • 6. […] Platelet counts ≥120,000/mm^3 • 8. […]

[2] = Metabolite profiling of plasma, urine and feces after intravenous dose; assay type: in vivo, male Sprague Dawley rats; conditions: intravenous 10 mg/kg
Experimental: Nine male Sprague Dawley rats (Group 1) were designated for the pharmacokinetic phase, 3 male Sprague Dawley rats (Group 2) for the excretion mass balance phase, and 7 male Sprague Dawley rats (Group 3) and 9 male Long Evans rats (Group 4) for the tissue distribution phase. All animals received a single intravenous dose of [^14C]-25HC3S at 10 mg/kg and a target radioactivity of 225 μCi/kg. Blood samples were collected from all Group 1 animals at approximately 0.083, 0.25, 0.5, 1, 2, 4, 8, 12, 24, 48, and 72 hours post-dose. Urine and feces were collected from all Group 2 animals periodically through 168 hours post-dose. […] Following blood collection, animals were euthanized by CO2 inhalation and carcasses frozen in a dry ice/hexane bath for processing by quantitative whole body autoradiography. Whole blood, plasma, urine, feces, cage rinse, and cage wash were analyzed for total radioactivity by liquid scintillation counting.

[3] = Single oral dose safety and pharmacokinetic study in NASH and healthy subjects; assay type: in vivo, human; conditions: for Cmax: read-out: Cmax
Experimental: The present Example was a randomized, dose ranging, single dose safety and pharmacokinetic study of 25HC3S administered to subjects with NASH and control healthy subjects. […] For each cohort, 10 subjects with NASH were enrolled which were further classified into cirrhotic and non-cirrhotic. Each subject received only one dose of study treatment. The second cohort was dosed after a review of safety and tolerability data from Cohort 1.

NASH patients = conditions: 50 mg vs 200 mg oral; cited from earlier work
[4] = Phase 1b study in NASH patients: pharmacokinetics; assay type: in vivo, human; conditions: for CL/F / AUC(0-t) / Cmax / Tmax / half-life: NASH patients, mean (standard deviation); for AUC(0-t) / Cmax / Tmax / half-life: both sexes, human, plasma
From the text: A total of 63 patients completed the study with 21 patients per dose group (completion of MRI-PDFF measurement). […] Subjects provided written informed consent to participate in the study • 2. Males or females subjects 18 years or older, at the time of signing informed consent • 3. BMI 20-45 kg/m^2 • 4. […] Value of Fibroscan® ≥7 kPa • OR • b. MRE≥2.75 kPa • *Clinical diagnosis of NASH was defined in this clinical trial as the existence of one or more of the following risk factors for NASH, namely: • a. Type 2 diabetes or elevated fasting blood sugar • b. Abdominal obesity • c. Elevated lipid levels, especially elevated levels of serum triglycerides • d. Hypertension, or • e. Low levels of HDL cholesterol • 5. For serum transaminases, ALT concentration for all patients at the time of screening was >1 and <5 times upper limit of normal (ULN) of the central lab in the absence of another cause of liver disease. If a patient had lab records in the past 6 months, ALT concentrations were <20 U/L female and <30 U/L male. AST concentration for all patients at the time of screening was <5x ULN • 6. […] Platelet counts ≥120,000/mm^3 • 8. Female subjects were eligible for the study if they met the following criteria: • Are not pregnant or nursing • Women of child-bearing potential (defined as females who are not surgically sterile or who are not over the age of 52 and amenorrheic for at least 12 months) must utilize appropriate birth control throughout the study duration. Acceptable methods that may be used are abstinence, birth control pills (“The Pill”) or patch, diaphragm, IUD (coil), vaginal ring, condom, surgical sterilization or progestin implant or injection, or sexual activity limited to a sterile (e.g., vasectomized) male partner • 9. Male participants agreed to consistently and correctly use a condom in combination with one of the above methods of birth control from enrolment to 30 days after the last dose of study medication • 10. Participants were able to comply with dosing and able to complete the study schedule of assessments
The pharmacokinetics of administered 25HC3S was determined.

% of dose in feces ([2]; pools 0 to 48 hours postdose): 2 % of dose
share of the exposure (AUC) to 25HC3S related radioactivity in plasma ([2]; up to 1 hour postdose): approximately 54%
CL/F ([4]; 50 mg QD oral): 150.6 (51.5) L/h
CL/F ([4]; 150 mg QD oral): 176.6 (80.5) L/h
CL/F ([4]; 300 mg BID oral): 166.2 (60.4) L/h
AUC(0-t) ([4]; 50 mg QD oral): 340 ng·h/mL
Cmax ([4]; 50 mg QD oral): 79.1 ng/mL
Tmax ([4]; 50 mg QD oral): 2.4 h
half-life ([4]; 50 mg QD oral): 2.7 h
AUC(0-t) ([4]; 150 mg QD oral): 1040 ng·h/mL
Cmax ([4]; 150 mg QD oral): 274 ng/mL
Tmax ([4]; 150 mg QD oral): 2 h
half-life ([4]; 150 mg QD oral): 2.7 h
AUC(0-t) ([4]; 300 mg BID oral): 2140 ng·h/mL
Cmax ([4]; 300 mg BID oral): 430 ng/mL
Tmax ([4]; 300 mg BID oral): 2.3 h
half-life ([4]; 300 mg BID oral): 2.4 h
Structure (SMILES): C[C@H](CCCC(C)(C)O)[C@H]1CC[C@H]2[C@@H]3CC=C4C[C@@H](OS(=O)(=O)O)CC[C@]4(C)[C@H]3CC[C@]12C [25HC3S, 5-cholesten-3,25-diol, 3-sulfate]
tolerability, drug related serious adverse events [1]: well tolerated at all three doses with no drug related serious adverse events observed
difference in pharmacokinetics between healthy subjects and NASH patients ([3]; 50 mg and 200 mg single oral dose): no clear difference in pharmacokinetics
CL/F ([3]; 200 mg single oral dose, Healthy, Mean): 171.25 ± 28.60 L/h
time post-dose up to which plasma levels were detectable ([3]; Cohort 1 (50 mg) healthy subjects): up to 12 hours
AUC0-inf, higher in NASH than healthy subjects ([3]; Cohort 2 (200 mg)): approximately 20%
geometric mean AUC0-12 and AUC0-last, higher in NASH than healthy subjects ([3]; Cohort 2 (200 mg)): approximately 30%
time post-dose up to which plasma levels were detectable ([3]; Cohort 2 (200 mg) healthy subjects): up to 16 hours
increase of geometric mean Cmax in NASH over healthy subjects ([3]; Cohorts 1 and 2): 18-24%
exposure (AUC parameters), potential increasing trends in NASH subjects ([3]; NASH vs healthy): up to 31%
half-life ([3]; human, plasma, oral, across both healthy and NASH subject groups, 50 mg and 200 mg, read-out: T1/2, range of mean values): 1.67 to 2.51 h
Cmax ([3]; human, plasma, 50 mg single oral dose, Healthy, Mean): 94 ± 27.3 ng/mL
Cmax ([3]; human, plasma, 200 mg single oral dose, Healthy, Mean): 260 ± 54.8 ng/mL
dose dependence of biological responses (NASH patients): no dose-dependent changes of biological responses
PK parameters after repeat dosing ([4]; repeat vs single dose): comparable to those after a single dose and were dose dependent
